# Experimental data: patent US20120213707A1, “Riboflavin Based Aerosol and Use as Placebo in Trials” (MPEX PHARMACEUTICALS, INC., priority 2009, published 2012)
# Tests used:
# [1] = Aerosol particle size distribution, dog oronasal exposure system (7-Stage Mercer Cascade Impactor); format: physicochemical
# Description: (§1) The aerosol was produced by metering the flow of the test and control article formulations to 3 clinical nebulizers (Sidestream). The aerosol produced was discharged through a 40 mm diameter tube into a flow-past inhalation exposure system. The airflow rate through the exposure system was monitored and recorded manually during the aerosol generation. Airflow to the exposure system was controlled by the absolute volume of air supplying the aerosol generators using variable area flow meters. Control of the aerosol exhaust flow from the animal exposure system was achieved using an exhaust valve. The system provided a minimum of 6 L/min of aerosol to each animal exposure position and the inlet and outlet airflows were balanced to ensure that there was no dilution of the generated aerosol by air drawn from the environment. Any minor variations in flow were buffered by a balloon reservoir. An equal delivery of aerosol to each exposure position was achieved by employing a distribution network that was identical for each individual exposure position attached to the system.
# Determinations of aerosol concentration, particle size distribution, oxygen concentration, relative humidity and temperature were performed on test atmosphere samples collected from a representative port of the exposure system, with a collection sample flow-rate of 1 L/min. The sample flow rates were precisely controlled using variable area flow meters that were calibrated before use using a primary airflow calibrator. The absolute volume of each aerosol concentration sample was measured using a wet type gas meter.
# The distribution of particle size in the generated aerosols for Groups 2 to 4 were measured weekly during the treatment period by collecting samples into a 7-Stage Mercer Cascade Impactor and the particle size of aerosolized Riboflavin 5′-phosphate was determined using a validated analytical. The distribution of particle size in the generated aerosols for Group 1 were estimated once weekly by gravimetric determination. The MMAD and the Geometric Standard Deviation (GSD) were calculated based on the results obtained from the impactor using a log-probit transformation.
# [2] = system: Beagle dogs; experiment: 28-day aerosolized liquid inhalation (oronasal) toxicity study in Beagle dogs; format: in vivo
# Description: The objective of the study was to determine the toxicity and toxicokinetic profile of the test article, Riboflavin 5′-phosphate, following inhalation (oronasal) administration to dogs for 28 consecutive days.
# Test article: riboflavin 5′-phosphate sodium salt hydrate; alternate identity: vitamin B2 phosphate; description: yellow crystals; potency: 74%. Vehicle article: saline (0.9% (w/v) NaCl for injection); description: clear colorless solution. Exposure method: inhalation by oronasal face mask exposure.
# The test (0.5 mg/mL, 2.0 mg/mL, 5.0 mg/mL) and/or vehicle control formulations (0 mg/mL) for each group were prepared fresh daily on each day by dissolving the test article in saline. All prepared test article formulations were protected from light and kept at room temperature (RT).
# (§2) Duration of treatment: 28 days. Test system: Dog (Canis familiaris); strain: Beagle.
# as §1
# Mortality checks were performed once daily during the acclimation and pre-treatment periods, and twice a day (am and pm) during the treatment period of the study.
# Cage-side clinical signs (ill health, behavioral changes etc.) were recorded for all animals once daily during the acclimation period and twice daily (pre-exposure and post-exposure) during the treatment period except on detailed clinical examination days. A detailed clinical examination of each dog was performed (replacing a cage-side clinical sign observation in the morning) at least once pretreatment, one day prior to Day 1, weekly during the treatment period and before necropsy.
# Body weights were recorded for all animals at least once prior to group assignment, and approximately one week prior to initiation of treatment. Body weights were recorded for all animals one day prior to Day 1 and weekly during the treatment period, as well as terminally.
# Individual daily food intake was recorded for all animals during the last week of the pretreatment period and throughout the treatment period.
# Funduscopic (indirect ophthalmoscopy) and biomicroscopic (slit lamp) examinations were performed for all animals, once during the pre-treatment period and during Week 4 of the treatment period.
# Electrocardiograms (limb leads I, II and III, and augmented leads aVR, aVL and aVF) were obtained for all dogs once during the pre-treatment period and at least 90 minutes (between 90-120 minutes) postexposure on Days 1 and during Week 4 of the treatment period. In addition, indirect blood pressure was measured on the same occasions as ECG using a tail cuff. The tracings were assessed for gross changes indicative of cardiac electrical dysfunction and the potential presence of abnormalities involving heart rate (lead II), sinus and atrioventricular rhythm or conductivity were determined. Heart rate, PR interval, QRS duration, QT and QTc intervals values were tabulated for incorporation into the study report. […]
# [3] = Toxicokinetics in dogs: plasma riboflavin 5′-phosphate and metabolite riboflavin after aerosolized doses for 28 days; format: in vivo, Dog (Canis familiaris)
# Method: as §2
# A series of 9 blood samples (approximately 2.0 mL each) were removed from each dog on each of Days 1 and 28 of the treatment period. For this purpose, each dog was bled by venipuncture and the samples were collected into tubes containing the anticoagulant, Sodium Heparin. Tubes were placed immediately on wet ice pending processing within 30 minutes of collection. On each occasion, samples were collected at pre-dose, immediately post exposure (IPD), 15 and 30 minutes, 1, 2, 4, 6 and 24 hours post exposure. Following collection, the samples were centrifuged (approximately 4° C.) and the resulting plasma was recovered and stored frozen at ITR (approximately −20° C.) in labeled tubes protected from light pending shipment (on dry ice).
# [4] = Group 2 Low Dose, 0.5 mg/mL formulation
# [5] = Group 3 Mid Dose, 2.0 mg/mL formulation
# [6] = Group 4 High Dose, 5.0 mg/mL formulation
compound,measurement,setting,value
Cc1cc2nc3c(=O)[nH]c(=O)nc-3n(C[C@H](O)[C@H](O)[C@H](O)COP(=O)(O)O)c2cc1C [riboflavin 5′-phosphate],% of particles <3.1 μm,[1]; [4],91.1%
same,MMAD,[1]; [4],1.1 μm
same,% of particles <3.1 μm,[1]; [5],93.3%
same,MMAD,[1]; [5],1.1 μm
same,% of particles <3.1 μm,[1]; [6],87.2%
same,MMAD,[1]; [6],1.2 μm
same,No Observed Effect Level (NOEL),"[2]; Beagle dogs, oronasal inhalation up to 60 minutes/day, 28 consecutive days, high-dose group",1.341 mg/kg/day
same,tolerability,"[2]; beagle dogs, inhalation exposure 28 days",well tolerated
same,blood pressure,"[2]; dog, in vivo",no changes in blood pressure that were considered related to treatment
same,clinical chemistry,"[2]; dog, in vivo",no changes noted in clinical chemistry parameters that were considered to be treatment-related
same,clinical signs,"[2]; dog, in vivo",no clinical signs related to treatment
same,coagulation times,"[2]; dog, in vivo",unaffected by treatment
same,electrocardiogram wave forms,"[2]; dog, in vivo",unaffected by treatment
same,food consumption,"[2]; dog, in vivo",no changes noted in food consumption that were considered to be treatment-related
same,hematology,"[2]; dog, in vivo",no changes noted in hematology parameters that were considered to be treatment-related
same,macroscopic findings,"[2]; dog, in vivo",no macroscopic findings that were considered to be test article related
same,microscopic findings,"[2]; dog, in vivo",no evidence of test article-related histopathological finding
same,ophthalmology,"[2]; dog, in vivo",no ocular changes noted that were considered to be treatment-related
same,organ weights,"[2]; dog, in vivo",slight increase in spleen weight
same,"respiratory parameters (respiratory rate, tidal volume and minute volume)","[2]; dog, in vivo",no changes in respiratory parameters evaluated
same,urinalysis,"[2]; dog, in vivo",no changes in any of the urinalysis parameters evaluated that were considered affected by treatment
same,adverse effects,"[2]; dog, in vivo, 1.34 mg/kg/day",no adverse effects were observed
same,mortality,"[2]; dogs, 28 days inhalation",no premature deaths
same,accumulation following repeated dosing,[3]; 28 days,no accumulation
same,gender related difference of riboflavin plasma exposure,"[3]; Day 1, single administration",no observed apparent gender related difference
same,dose dependence of riboflavin plasma exposures (Cmax and AUC(0-T)),"[3]; both sexes, Day 1",increased as a function of the administered doses
same,dose dependence of riboflavin plasma exposures (Cmax and AUC(0-T)),"[3]; both sexes, Day 28",increased as a function of the administered doses
same,dose proportionality of riboflavin exposures (Cmax and AUC(0-T)),"[3]; both sexes, overall",appeared to be dose proportional
same,gender difference in riboflavin exposure,[3]; overall,no gender difference in riboflavin exposure
same,riboflavin 5′-phosphate concentrations in plasma of treated animals,[3]; single or repeated exposures,detected in only a single treated animal
